The values that follow come from ChEMBL document CHEMBL1782039, “Discovery of ((1S,3R)-1-isopropyl-3-((3S,4S)-3-methoxy-tetrahydro-2H-pyran-4-ylamino)cyclopentyl)(4-(5-(trifluoromethyl)pyridazin-3-yl)piperazin-1-yl)methanone, PF-4254196, a CCR2 antagonist with an improved cardiovascular profile” (Bioorg Med Chem Lett, 2011).

SMILES strings stand for the structures.

Data set [1] in a line: Intrinsic clearance in human liver microsomes. It counts as ADME, Microsome.
A short description of data set [2]: Half life in rat. It counts as ADME, organism-based. The following applies: in vivo.
Data set [3] can be described thus: Blood clearance in rat. It is filed as ADME, organism-based. The following applies: whole blood.
Data set [4] in a line: in vivo. Conditions: rat, brain and plasma.
Data set [5] can be described thus: Lipophilicity, log D of the compound at pH 7.4. It counts as physicochemical. The following applies: buffer.
The nature of data set [6]: Bioavailability in rat at 1 mg/kg, po and iv. It is filed as ADME, organism-based. Conditions: in vivo.

With `CO[C@@H]1COCC[C@@H]1N[C@@H]1CC[C@@](C(=O)N2CCN(c3cc(C(F)(F)F)ccn3)CC2)(C(C)C)C1`, the microsomal CLint in data set [1] came to 9.3 µL/min/mg. The half-life in data set [2] was 3.9 h. In data set [3], this molecule yielded a clearance of 33.8 mL/min/kg. This molecule displayed a partition ratio (Kp) in data set [4] of 3.

As for `CO[C@@H]1COCC[C@@H]1N(C)[C@@H]1CC[C@@](C(=O)N2CCN(c3cc(C(F)(F)F)ccn3)CC2)(C(C)C)C1`, the microsomal CLint in data set [1] is 58 µL/min/mg.

`CO[C@@H]1COCC[C@@H]1N[C@@H]1CC[C@@](C(=O)N2CCN(c3ccnc(C(F)(F)F)c3)CC2)(C(C)C)C1`: the intrinsic metabolic clearance (microsomal CLint) in data set [1] was under 7 µL/min/mg. In data set [5], this molecule came in with a logD of 0.7.

In data set [1], `CO[C@@H]1COCC[C@@H]1N[C@@H]1CC[C@@](C(=O)N2CCN(c3cc(C(F)(F)F)cnn3)CC2)(C(C)C)C1` registered an intrinsic metabolic clearance (microsomal CLint) of under 7 µL/min/mg. Moreover, the pH-dependent lipophilicity (logD) in data set [5] turned out to be 0.5. In data set [6], this molecule returned a bioavailability of 50%.

Molecule `CC(C)[C@]1(C(=O)N2CCN(c3cc(C(F)(F)F)ccn3)CC2)CC[C@@H](N2CCC3COCCC32)C1` (stereo in doubt; 22) yielded a microsomal CLint in data set [1] of under 7 µL/min/mg.

Take `CC(C)[C@]1(C(=O)N2CCN(c3cc(C(F)(F)F)cnn3)CC2)CC[C@@H](NC2C3CCCC2COC3)C1` (stereo in doubt; 27): the intrinsic clearance (microsomal CLint) in data set [1] amounted to 58 µL/min/mg.
